Counter-ions that a name gives are not always drawn.
Key:
[1] = target: human Cat L (Homo sapiens (Human), UniProt P07711); assay: Cathepsin enzyme inhibition assay (human Cat L); type: biochemical; conditions: enzyme 1 nM, substrate Z-Val-Val-Arg-AMC 20 μM
Protocol: (§1) Cathepsin Enzyme Inhibition Assay
(§2) Enzyme activity is measured by observing the increase in fluorescence intensity caused by cleavage of a peptide substrate containing a fluorophore whose emission is quenched in the intact peptide.
(§3) Assay buffer: 100 mM potassium phosphate pH 6.5, EDTA-Na 5 mM, Triton X-100 0.001%, DTT 5 mM.
(§4) Enzymes (all at 1 nM): human and mouse Cathepsin S, Cat K, Cat B, Cat L.
(§5) Substrate (20 μM): Z-Val-Val-Arg-AMC, except for Cat K which uses Z-Leu-Arg-AMC (both from Bachem).
Excitation 360 nm, Emission 465 nm.
Enzyme is added to the substance dilutions in 96-well microtitre plates and the reaction is started with substrate. Fluorescence emission is measured over 20 minutes, during which time a linear increase is observed in the absence of inhibitor. IC50 are calculated by standard methods.
Inhibition of human Cat S, mouse Cat S, human Cat K, human Cat B, human Cat L and mouse Cat L have been measured separately. The results obtained for human Cat S and L for representative compounds of the invention are expressed in the following table in μM.

[2] = target: human Cat S (Homo sapiens (Human), UniProt P25774); assay: Cathepsin enzyme inhibition assay (human Cat S); type: biochemical; conditions: enzyme 1 nM, substrate Z-Val-Val-Arg-AMC 20 μM
Protocol: as §1, §2, §3, §4, §5
Enzyme is added to the substance dilutions in 96-well microtitre plates and the reaction is started with substrate. […] IC50 are calculated by standard methods.
Inhibition of human Cat S, mouse Cat S, human Cat K, human Cat B, human Cat L and mouse Cat L have been measured separately.

Chain of human Cat S (P25774 115-331): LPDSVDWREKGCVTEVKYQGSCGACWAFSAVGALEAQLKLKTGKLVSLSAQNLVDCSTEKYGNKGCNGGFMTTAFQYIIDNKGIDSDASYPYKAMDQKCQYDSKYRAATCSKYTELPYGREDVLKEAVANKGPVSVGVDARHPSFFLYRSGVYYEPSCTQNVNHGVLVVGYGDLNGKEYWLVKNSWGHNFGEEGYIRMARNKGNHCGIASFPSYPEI
Chain of human Cat L (P07711 114-333): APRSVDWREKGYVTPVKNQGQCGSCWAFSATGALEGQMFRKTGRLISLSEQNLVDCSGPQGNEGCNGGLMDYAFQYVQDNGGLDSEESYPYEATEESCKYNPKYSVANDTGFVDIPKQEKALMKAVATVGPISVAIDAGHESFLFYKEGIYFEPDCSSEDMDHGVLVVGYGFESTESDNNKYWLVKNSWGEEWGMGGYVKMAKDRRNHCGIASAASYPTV

Compound: COc1ccc(S(=O)(=O)[C@@H]2C[C@@H](C(=O)NC3(C#N)CC3)N(C(=O)C3(c4ccc(Cl)cn4)CN(C(=O)OC(C)(C)C)C3)C2)c(Cl)c1 [Example 1, 3-[(2S,4R)-4-(2-Chloro-4-methoxy-benzenesulfonyl)-2-(1-cyano-cyclopropylcarbamoyl)-pyrrolidine-1-carbonyl]-3-(5-chloro-pyridin-2-yl)-azetidine-1-carboxylic acid tert-butyl ester]
- IC50 ([1]; pH 6.5): 1070 nM
- IC50 ([2]; pH 6.5): 3.22 nM

Compound: Cn1cc(-c2ccc(S(=O)(=O)[C@@H]3C[C@@H](C(=O)NC4(C#N)CC4)N(C(=O)C4(c5ncc(Cl)cc5F)CCN4)C3)c(Cl)c2)cn1 (stereo partly drawn) [Example 47, (2S,4R)-1-[2-(5-Chloro-3-fluoro-pyridin-2-yl)-azetidine-2-carbonyl]-4-[2-chloro-4-(1-methyl-1H-pyrazol-4-yl)-benzenesulfonyl]-pyrrolidine-2-carboxylic acid (1-cyano-cyclopropyl)-amide hydrochloride]
- IC50 ([1]; pH 6.5): 82.1 nM
- IC50 ([2]; pH 6.5): 0.791 nM

Compound: C[C@H](Oc1ccc(S(=O)(=O)[C@@H]2C[C@@H](C(=O)NC3(C#N)CC3)N(C(=O)C3(c4ncc(Br)cc4F)CNC3)C2)c(Cl)c1)C(F)(F)F [Example 34, (2S,4R)-1-[3-(5-Bromo-3-fluoro-pyridin-2-yl)-azetidine-3-carbonyl]-4-[2-chloro-4-((S)-2,2,2-trifluoro-1-methyl-ethoxy)-benzenesulfonyl]-pyrrolidine-2-carboxylic acid (1-cyano-cyclopropyl)-amide]
- IC50 ([1]; pH 6.5): 14.2 nM
- IC50 ([2]; pH 6.5): 3.48 nM

Compound: N#CC1(NC(=O)[C@@H]2C[C@@H](S(=O)(=O)c3ccc(OCC(F)(F)F)cc3Cl)CN2C(=O)C2(c3ccc(Cl)cn3)CNC2)CC1 [Example 6, (2S,4R)-1-[3-(5-Chloro-pyridin-2-yl)-azetidine-3-carbonyl]-4-[2-chloro-4-(2,2,2-trifluoro-ethoxy)-benzenesulfonyl]-pyrrolidine-2-carboxylic acid (1-cyano-cyclopropyl)-amide]
- IC50 ([1]; pH 6.5): 89.8 nM

Compound: Cn1cc(-c2ccc(S(=O)(=O)[C@@H]3C[C@@H](C(=O)NC4(C#N)CC4)N(C(=O)C4(c5ncc(Br)cc5F)CCN4)C3)c(Cl)c2)cn1 (stereo partly drawn) [Example 48, (2S,4R)-1-[2-(5-Bromo-3-fluoro-pyridin-2-yl)-azetidine-2-carbonyl]-4-[2-chloro-4-(1-methyl-1H-pyrazol-4-yl)-benzenesulfonyl]-pyrrolidine-2-carboxylic acid (1-cyano-cyclopropyl)-amide hydrochloride]
- IC50 ([1]; pH 6.5): 98.9 nM
- IC50 ([2]; pH 6.5): 1.85 nM

Compound: CC(C)(C)OC(=O)N1CC(C(=O)N2C[C@H](S(=O)(=O)c3ccccc3Cl)C[C@H]2C(=O)NC2(C#N)CC2)(c2ncc(Cl)cc2F)C1 [Example 10, 3-[(2S,4R)-4-(2-Chloro-benzenesulfonyl)-2-(1-cyano-cyclopropylcarbamoyl)-pyrrolidine-1-carbonyl]-3-(5-chloro-3-fluoro-pyridin-2-yl)-azetidine-1-carboxylic acid tert-butyl ester]
- IC50 ([1]; pH 6.5): 194 nM
- IC50 ([2]; pH 6.5): 1.26 nM

Compound: C[C@H](Oc1ccc(S(=O)(=O)[C@@H]2C[C@@H](C(=O)NC3(C#N)CC3)N(C(=O)C3(c4ncc(Cl)cc4F)CCN3)C2)c(Cl)c1)C(F)(F)F (stereo partly drawn) [Example 37, (2S,4R)-1-[2-(5-Chloro-3-fluoro-pyridin-2-yl)-azetidine-2-carbonyl]-4-[2-chloro-4-((S)-2,2,2-trifluoro-1-methyl-ethoxy)-benzenesulfonyl]-pyrrolidine-2-carboxylic acid (1-cyano-cyclopropyl)-amide hydrochloride]
- IC50 ([1]; pH 6.5, hydrochloride): 58.5 nM
- IC50 ([2]; pH 6.5, hydrochloride): 3.83 nM

Compound: N#CC1(NC(=O)[C@@H]2C[C@@H](S(=O)(=O)c3ccc(F)cc3Cl)CN2C(=O)C2(c3ncc(Cl)cc3F)CCN2)CC1 (stereo partly drawn) [Example 35, (2S,4R)-4-(2-Chloro-4-fluoro-benzenesulfonyl)-1-[2-(5-chloro-3-fluoro-pyridin-2-yl)-azetidine-2-carbonyl]-pyrrolidine-2-carboxylic acid (1-cyano-cyclopropyl)-amide hydrochloride]
- IC50 ([1]; pH 6.5, hydrochloride): 1440 nM
- IC50 ([2]; pH 6.5, hydrochloride): 1.3 nM

Compound: CC(C)(C)OC(=O)N1CCC1(C(=O)N1C[C@H](S(=O)(=O)c2ccc(F)cc2Cl)C[C@H]1C(=O)NC1(C#N)CC1)c1ncc(Cl)cc1F (stereo partly drawn) [Example 24, 2-[(2S,4R)-4-(2-Chloro-4-fluoro-benzenesulfonyl)-2-(1-cyano-cyclopropylcarbamoyl)-pyrrolidine-1-carbonyl]-2-(5-chloro-3-fluoro-pyridin-2-yl)-azetidine-1-carboxylic acid tert-butyl ester]
- IC50 ([1]; pH 6.5): 922 nM
- IC50 ([2]; pH 6.5): 4.56 nM

Compound: N#CC1(NC(=O)[C@@H]2C[C@@H](S(=O)(=O)c3ccc(OCC(F)(F)F)cc3Cl)CN2C(=O)C2(c3ccc(Cl)cn3)CN(CC(F)F)C2)CC1 [Example 8, (2S,4R)-1-[3-(5-Chloro-pyridin-2-yl)-1-(2,2-difluoro-ethyl)-azetidine-3-carbonyl]-4-[2-chloro-4-(2,2,2-trifluoro-ethoxy)-benzenesulfonyl]-pyrrolidine-2-carboxylic acid (1-cyano-cyclopropyl)-amide]
- IC50 ([1]; pH 6.5): 141 nM
- IC50 ([2]; pH 6.5): 0.694 nM

Compound: CC(C)(C)OC(=O)N1CCC1(C(=O)N1C[C@H](S(=O)(=O)c2ccc(F)cc2Cl)C[C@H]1C(=O)NC1(C#N)CC1)c1ncc(Br)cc1F (stereo partly drawn) [Example 25, 2-(5-Bromo-3-fluoro-pyridin-2-yl)-2-[(2S,4R)-4-(2-chloro-4-fluoro-benzenesulfonyl)-2-(1-cyano-cyclopropylcarbamoyl)-pyrrolidine-1-carbonyl]-azetidine-1-carboxylic acid tert-butyl ester]
- IC50 ([1]; pH 6.5): 2910 nM
- IC50 ([2]; pH 6.5): 0.492 nM

Compound: CC(C)(C)OC(=O)N1CC(C(=O)N2C[C@H](S(=O)(=O)c3ccc(OCC(F)(F)F)cc3Cl)C[C@H]2C(=O)NC2(C#N)CC2)(c2ccc(Cl)cn2)C1 [Example 4, 3-(5-Chloro-pyridin-2-yl)-3-[(2S,4R)-4-[2-chloro-4-(2,2,2-trifluoro-ethoxy)-benzenesulfonyl]-2-(1-cyano-cyclopropylcarbamoyl)-pyrrolidine-1-carbonyl]-azetidine-1-carboxylic acid tert-butyl ester]
- IC50 ([1]; pH 6.5): 1240 nM
- IC50 ([2]; pH 6.5): 2.75 nM

Compound: CC(C)(C)OC(=O)N1CCC1(C(=O)N1C[C@H](S(=O)(=O)c2ccc(F)cc2Cl)C[C@H]1C(=O)NC1(C#N)CC1)c1ncc(Br)cc1F (stereo partly drawn) [Example 22, 2-(5-Bromo-3-fluoro-pyridin-2-yl)-2-[(2S,4R)-4-(2-chloro-4-fluoro-benzenesulfonyl)-2-(1-cyano-cyclopropylcarbamoyl)-pyrrolidine-1-carbonyl]-azetidine-1-carboxylic acid tert-butyl ester]
- IC50 ([1]; pH 6.5): 1020 nM
- IC50 ([2]; pH 6.5): 1.26 nM

Compound: C[C@H](Oc1ccc(S(=O)(=O)[C@@H]2C[C@@H](C(=O)NC3(C#N)CC3)N(C(=O)C3(c4ncc(Cl)cc4F)CCN3C(=O)OC(C)(C)C)C2)c(Cl)c1)C(F)(F)F (stereo partly drawn) [Example 27, tert-butyl 2-(5-chloro-3-fluoropyridin-2-yl)-2-((2S,4R)-4-(2-chloro-4-((S)-1,1,1-trifluoropropan-2-yloxy)phenylsulfonyl)-2-(1-cyanocyclopropylcarbamoyl)pyrrolidine-1-carbonyl)azetidine-1-carboxylate]
- IC50 ([1]; pH 6.5): 528 nM

Compound: N#CC1(NC(=O)[C@@H]2C[C@@H](S(=O)(=O)c3ccccc3Cl)CN2C(=O)C2(c3ncc(Br)cc3F)CNC2)CC1 [Example 13, (2S,4R)-1-[3-(5-Bromo-3-fluoro-pyridin-2-yl)-azetidine-3-carbonyl]-4-(2-chloro-benzenesulfonyl)-pyrrolidine-2-carboxylic acid (1-cyano-cyclopropyl)-amide]
- IC50 ([1]; pH 6.5): 4.6 nM
- IC50 ([2]; pH 6.5): 1.09 nM

Compound: COc1ccc(S(=O)(=O)[C@@H]2C[C@@H](C(=O)NC3(C#N)CC3)N(C(=O)C3(c4ccc(Cl)cn4)CNC3)C2)c(Cl)c1 [Example 2, (2S,4R)-4-(2-Chloro-4-methoxy-benzenesulfonyl)-1-[3-(5-chloro-pyridin-2-yl)-azetidine-3-carbonyl]-pyrrolidine-2-carboxylic acid (1-cyano-cyclopropyl)-amide]
- IC50 ([1]; pH 6.5): 38.1 nM
- IC50 ([2]; pH 6.5): 1.49 nM

Compound: C[C@H](Oc1ccc(S(=O)(=O)[C@@H]2C[C@@H](C(=O)NC3(C#N)CC3)N(C(=O)C3(c4ncc(Cl)cc4F)CCN3C(=O)OC(C)(C)C)C2)c(Cl)c1)C(F)(F)F (stereo partly drawn) [Example 28, tert-butyl 2-(5-chloro-3-fluoropyridin-2-yl)-2-((2S,4R)-4-(2-chloro-4-((S)-1,1,1-trifluoropropan-2-yloxy)phenylsulfonyl)-2-(1-cyanocyclopropylcarbamoyl)pyrrolidine-1-carbonyl)azetidine-1-carboxylate]
- IC50 ([1]; pH 6.5): 556 nM

Compound: CN1CC(C(=O)N2C[C@H](S(=O)(=O)c3ccccc3Cl)C[C@H]2C(=O)NC2(C#N)CC2)(c2ncc(Br)cc2F)C1 [Example 14, (2S,4R)-1-[3-(5-Bromo-3-fluoro-pyridin-2-yl)-1-methyl-azetidine-3-carbonyl]-4-(2-chloro-benzenesulfonyl)-pyrrolidine-2-carboxylic acid (1-cyano-cyclopropyl)-amide]
- IC50 ([1]; pH 6.5): 12.5 nM
